Measured values reported in patent US20260022142A1, “MACROCYCLIC IMMUNOMODULATORS” (Bristol-Myers Squibb Company, priority 2022, published 2026).
Bridge positions count the residues as written; N and C are the ends. Square brackets hold non-standard residues; d marks the D form. Peptide text beside a SMILES is read from it. * marks the point of attachment. ξ: configuration not given here. Phe(4-CH2CH2COOH) = N[C@@H](Cc1ccc(CCC(=O)O)cc1)C(=O)O; Phe(4-COOH) = N[C@@H](Cc1ccc(C(=O)O)cc1)C(=O)O; Bip = N[C@@H](Cc1ccc(-c2ccccc2)cc1)C(=O)O; Phe(3-Me) = Cc1cccc(C[C@H](N)C(=O)O)c1; hArg = N=C(N)NCCCC[C@H](N)C(=O)O; Cha = N[C@@H](CC1CCCCC1)C(=O)O; Cit = NC(=O)NCCC[C@H](N)C(=O)O; Thr(3ξ) = CC(O)[C@H](N)C(=O)O; 12Ado = NCCCCCCCCCCCC(=O)O; Carboxymethyl = O=C(O)C*; Orn = NCCC[C@H](N)C(=O)O; Aun = NCCCCCCCCCCC(=O)O; Dab = NCC[C@H](N)C(=O)O; ξDab = NCCC(N)C(=O)O

Biological target: T1, PD-1/PD-L1 interaction (PE-labeled human PD-L1-Ig binding to Jurkat cell line over-expressing human PD-1) (Homo sapiens, UniProt Q15116)
T1 construct: expressed in transfected cells; host or cells: Jurkat
T1 sequence (Q15116 25-288): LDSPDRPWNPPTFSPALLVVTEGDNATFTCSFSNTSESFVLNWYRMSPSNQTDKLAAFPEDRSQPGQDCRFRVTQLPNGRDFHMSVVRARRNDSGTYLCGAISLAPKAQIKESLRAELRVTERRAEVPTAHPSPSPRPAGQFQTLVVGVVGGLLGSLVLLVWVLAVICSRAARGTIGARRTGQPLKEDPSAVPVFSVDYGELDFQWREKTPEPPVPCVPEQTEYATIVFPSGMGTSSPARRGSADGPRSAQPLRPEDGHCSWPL
Assay: Jurkat-PD-1 Cell Binding High-Content Screening Assay (CBA)
Format: cell-based
Conditions: Jurkat cell line over-expressing human PD-1; PE-labeled PD-L1-Ig 20 nM final; read-out: Jurkat hPD1-PDL1 IC50
Summary of the method: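 First, compound is added to PD-1-expressing Jurkat cells in serum-containing DMEM and left 2 h at 37° C. Next, PE-conjugated PD-L1-Ig is introduced at 20 nM final concentration for 1 hour. Finally, cells are fixed in 4% paraformaldehyde with Hoechst 33342, washed and imaged.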

IC50 | Structure (SMILES)
3.6 nM | Cc1cccc(C[C@@H]2NC(=O)[C@H](CC(=O)O)NC(=O)[C@H](Cc3ccc(OCC(=O)O)cc3)NC(=O)[C@H](C(C)O)NC(=O)CSC[C@@H](C(=O)N[C@H](CC(N)=O)C(=O)NCCCCCCCCCCC(=O)O)NC(=O)[C@H](CCN)NC(=O)[C@H](C(C)C)NC(=O)[C@H](CC3CCCCC3)NC(=O)[C@H](CCN)NC(=O)[C@@H](CC(C)C)NC(=O)[C@H](CCCN)NC(=O)[C@H](Cc3ccc(OCC(=O)O)cc3)NC(=O)[C@H](Cc3ccc(-c4ccccc4)cc3)NC(=O)[C@H](Cc3ccc(OCC(=O)O)cc3)NC2=O)c1 (stereo partly drawn) [Compound 3497] ({CH2CO}-[Thr(3ξ)]Y(Carboxymethyl)D[Phe(3-Me)]Y(Carboxymethyl)[Bip]Y(Carboxymethyl)[Orn][dL][Dab][Cha]V[Dab]C[dN][Aun]-OH; thioether N-14)
47.2 nM | Cc1cccc(C[C@@H]2NC(=O)[C@H](CC(=O)O)NC(=O)[C@H](Cc3ccc(OCC(=O)O)cc3)NC(=O)[C@H](CCCNC(=N)N)NC(=O)CSC[C@@H](C(=O)N[C@H](CC(N)=O)C(=O)NCCCCCCCCCCC(=O)O)NC(=O)[C@H](C(C)O)NC(=O)[C@H](C(C)C)NC(=O)[C@H](CC3CCCCC3)NC(=O)[C@H](CCN)NC(=O)[C@@H](CC(C)C)NC(=O)[C@H](CCCNC(N)=O)NC(=O)[C@H](Cc3ccc(OCC(=O)O)cc3)NC(=O)[C@H](Cc3ccc(-c4ccccc4)cc3)NC(=O)[C@H](Cc3ccc(OCC(=O)O)cc3)NC2=O)c1 (stereo partly drawn) [Compound 3498] ({CH2CO}-RY(Carboxymethyl)D[Phe(3-Me)]Y(Carboxymethyl)[Bip]Y(Carboxymethyl)[Cit][dL][Dab][Cha]V[Thr(3ξ)]C[dN][Aun]-OH; thioether N-14)
15 nM | Cc1cccc(C[C@@H]2NC(=O)[C@H](CC(=O)O)NC(=O)[C@H](Cc3ccc(OCC(=O)O)cc3)NC(=O)[C@H](C(C)O)NC(=O)CSC[C@@H](C(=O)N[C@H](CC(N)=O)C(=O)NCCCCCCCCCCC(=O)O)NC(=O)[C@H](C(C)O)NC(=O)[C@H](C(C)C)NC(=O)[C@H](CC3CCCCC3)NC(=O)[C@H](CCN)NC(=O)[C@@H](CC(C)C)NC(=O)[C@H](CCCNC(N)=O)NC(=O)[C@H](Cc3ccc(OCC(=O)O)cc3)NC(=O)[C@H](Cc3ccc(-c4ccccc4)cc3)NC(=O)[C@H](Cc3ccc(OCC(=O)O)cc3)NC2=O)c1 (stereo partly drawn) [Compound 3499] ({CH2CO}-[Thr(3ξ)]Y(Carboxymethyl)D[Phe(3-Me)]Y(Carboxymethyl)[Bip]Y(Carboxymethyl)[Cit][dL][Dab][Cha]V[Thr(3ξ)]C[dN][Aun]-OH; thioether N-14)
5.2 nM | Cc1cccc(C[C@@H]2NC(=O)[C@H](CC(=O)O)NC(=O)[C@H](Cc3ccc(OCC(=O)O)cc3)NC(=O)[C@H](C(C)O)NC(=O)CSC[C@@H](C(=O)N[C@H](CC(N)=O)C(=O)NCCCCCCCCCCC(=O)O)NC(=O)[C@H](C(C)O)NC(=O)[C@H](C(C)C)NC(=O)[C@H](CC3CCCCC3)NC(=O)[C@H](CCN)NC(=O)[C@@H](CC(C)C)NC(=O)[C@H](CCCN)NC(=O)[C@H](Cc3ccc(C(=O)O)cc3)NC(=O)[C@H](Cc3ccc(-c4ccccc4)cc3)NC(=O)[C@H](Cc3ccc(C(=O)O)cc3)NC2=O)c1 (stereo partly drawn) [Compound 3500] ({CH2CO}-[Thr(3ξ)]Y(Carboxymethyl)D[Phe(3-Me)][Phe(4-COOH)][Bip][Phe(4-COOH)][Orn][dL][Dab][Cha]V[Thr(3ξ)]C[dN][Aun]-OH; thioether N-14)
63.1 nM | Cc1cccc(C[C@@H]2NC(=O)[C@H](CC(=O)O)NC(=O)[C@H](Cc3ccc(OCC(=O)O)cc3)NC(=O)[C@H](Cc3ccc(OCC(=O)O)cc3)NC(=O)CSC[C@@H](C(=O)NC(CCN)C(=O)NCCCCCCCCCCCC(=O)O)NC(=O)[C@H](C(C)O)NC(=O)[C@H](C(C)C)NC(=O)[C@H](CC3CCCCC3)NC(=O)[C@H](Cc3cnc[nH]3)NC(=O)[C@@H](CC(C)C)NC(=O)[C@H](CCCN)NC(=O)[C@H](CCCNC(N)=O)NC(=O)[C@H](Cc3ccc(-c4ccccc4)cc3)NC(=O)[C@H](C(C)C)NC2=O)c1 (stereo partly drawn) [Compound 3502] ({CH2CO}-Y(Carboxymethyl)Y(Carboxymethyl)D[Phe(3-Me)]V[Bip][Cit][Orn][dL]H[Cha]V[Thr(3ξ)]C[ξDab][12Ado]-OH; thioether N-14)
38.2 nM | Cc1cccc(C[C@@H]2NC(=O)[C@H](CC(=O)O)NC(=O)[C@H](Cc3ccc(OCC(=O)O)cc3)NC(=O)[C@H](C(C)O)NC(=O)CSC[C@@H](C(=O)NC(CCN)C(=O)NCCCCCCCCCCC(=O)O)NC(=O)[C@H](C(C)O)NC(=O)[C@H](C(C)C)NC(=O)[C@H](CC3CCCCC3)NC(=O)[C@H](Cc3cnc[nH]3)NC(=O)[C@@H](CC(C)C)NC(=O)[C@H](CCCN)NC(=O)[C@H](CCCNC(N)=O)NC(=O)[C@H](Cc3ccc(-c4ccccc4)cc3)NC(=O)[C@H](C(C)C)NC2=O)c1 (stereo partly drawn) [Compound 3503] ({CH2CO}-[Thr(3ξ)]Y(Carboxymethyl)D[Phe(3-Me)]V[Bip][Cit][Orn][dL]H[Cha]V[Thr(3ξ)]C[ξDab][Aun]-OH; thioether N-14)
15.1 nM | Cc1cccc(C[C@@H]2NC(=O)[C@H](CC(=O)O)NC(=O)[C@H](Cc3ccc(OCC(=O)O)cc3)NC(=O)[C@H](CCCNC(=N)N)NC(=O)CSC[C@@H](C(=O)N[C@@H](CCN)C(=O)NCCCCCCCCCCC(=O)O)NC(=O)[C@H](C(C)O)NC(=O)[C@H](CO)NC(=O)[C@H](CC3CCCCC3)NC(=O)[C@H](CCN)NC(=O)[C@@H](CC(C)C)NC(=O)[C@H](CCCN)NC(=O)[C@H](Cc3ccc(OCC(=O)O)cc3)NC(=O)[C@H](Cc3ccc(-c4ccccc4)cc3)NC(=O)[C@H](Cc3ccc(CCC(=O)O)cc3)NC2=O)c1 (stereo partly drawn) [Compound 3506] ({CH2CO}-RY(Carboxymethyl)D[Phe(3-Me)][Phe(4-CH2CH2COOH)][Bip]Y(Carboxymethyl)[Orn][dL][Dab][Cha]S[Thr(3ξ)]C[Dab][Aun]-OH; thioether N-14)

Continued, molecule first:

Structure (SMILES) | IC50
Cc1cccc(C[C@@H]2NC(=O)[C@H](CC(=O)O)NC(=O)[C@H](Cc3ccc(OCC(=O)O)cc3)NC(=O)[C@H](CCCNC(=N)N)NC(=O)CSC[C@@H](C(=O)NC(CCN)C(=O)NCCCCCCCCCCCC(=O)O)NC(=O)[C@H](C(C)O)NC(=O)[C@H](C(C)C)NC(=O)[C@H](CC3CCCCC3)NC(=O)[C@H](Cc3c[nH]cn3)NC(=O)[C@@H](CC(C)C)NC(=O)[C@H](CCCN)NC(=O)[C@H](CCCNC(N)=O)NC(=O)[C@H](Cc3ccc(-c4ccccc4)cc3)NC(=O)[C@H](C(C)C)NC2=O)c1 (stereo partly drawn) [Compound 3501] ({CH2CO}-RY(Carboxymethyl)D[Phe(3-Me)]V[Bip][Cit][Orn][dL]H[Cha]V[Thr(3ξ)]C[ξDab][12Ado]-OH; thioether N-14) | 103 nM
Cc1cccc(C[C@@H]2NC(=O)[C@H](CC(=O)O)NC(=O)[C@H](Cc3ccc(OCC(=O)O)cc3)NC(=O)[C@H](C(C)O)NC(=O)CSC[C@@H](C(=O)NC(CCN)C(=O)NCCCCCCCCCCCC(=O)O)NC(=O)[C@H](C(C)O)NC(=O)[C@H](C(C)C)NC(=O)[C@H](CC3CCCCC3)NC(=O)[C@H](CCN)NC(=O)[C@@H](CC(C)C)NC(=O)[C@H](CCCN)NC(=O)[C@H](CCCNC(N)=O)NC(=O)[C@H](Cc3ccc(-c4ccccc4)cc3)NC(=O)[C@H](C(C)C)NC2=O)c1 (stereo partly drawn) [Compound 3504] ({CH2CO}-[Thr(3ξ)]Y(Carboxymethyl)D[Phe(3-Me)]V[Bip][Cit][Orn][dL][Dab][Cha]V[Thr(3ξ)]C[ξDab][12Ado]-OH; thioether N-14) | 26.2 nM
CC(=O)NCCCC[C@@H]1NC(=O)[C@H](Cc2ccc(-c3ccccc3)cc2)NC(=O)[C@H](Cc2ccc(O)cc2)NC(=O)[C@H](Cc2cccc(C)c2)NC(=O)[C@H](CC(=O)O)NC(=O)[C@H](Cc2ccc(OCC(=O)O)cc2)NC(=O)[C@H](CCCCNC(=N)N)NC(=O)CSC[C@@H](C(=O)N[C@@H](CCN)C(=O)NCCCCCCCCCCC(=O)O)NC(=O)[C@H](C(C)O)NC(=O)[C@H](C(C)C)NC(=O)[C@H](CC2CCCCC2)NC(=O)[C@H](CCN)NC(=O)[C@@H](CC(C)C)NC(=O)[C@H](CCCN)NC1=O (stereo partly drawn) [Compound 3505] ({CH2CO}-[hArg]Y(Carboxymethyl)D[Phe(3-Me)]Y[Bip]K(Ac)[Orn][dL][Dab][Cha]V[Thr(3ξ)]C[Dab][Aun]-OH; thioether N-14) | 16.6 nM
CC(=O)NCCCC[C@@H]1NC(=O)[C@H](Cc2ccc(-c3ccccc3)cc2)NC(=O)[C@H](Cc2ccc(O)cc2)NC(=O)[C@H](Cc2cccc(C)c2)NC(=O)[C@H](CC(=O)O)NC(=O)[C@H](Cc2ccc(OCC(=O)O)cc2)NC(=O)[C@H](CCCNC(=N)N)NC(=O)CSC[C@@H](C(=O)N[C@@H](CCN)C(=O)NCCCCCCCCCCC(=O)O)NC(=O)[C@H](C(C)O)NC(=O)[C@H](CO)NC(=O)[C@H](CC2CCCCC2)NC(=O)[C@H](CCN)NC(=O)[C@@H](CC(C)C)NC(=O)[C@H](CCCN)NC1=O (stereo partly drawn) [Compound 3507] ({CH2CO}-RY(Carboxymethyl)D[Phe(3-Me)]Y[Bip]K(Ac)[Orn][dL][Dab][Cha]S[Thr(3ξ)]C[Dab][Aun]-OH; thioether N-14) | 39.7 nM
CC(=O)NCCCC[C@@H]1NC(=O)[C@H](Cc2ccc(-c3ccccc3)cc2)NC(=O)[C@H](Cc2ccc(O)cc2)NC(=O)[C@H](Cc2cccc(C)c2)NC(=O)[C@H](CC(=O)O)NC(=O)[C@H](Cc2ccc(OCC(=O)O)cc2)NC(=O)[C@H](CCCNC(=N)N)NC(=O)CSC[C@@H](C(=O)N[C@@H](CCN)C(=O)NCCCCCCCCCCC(=O)O)NC(=O)[C@H](C(C)O)NC(=O)[C@H](C(C)C)NC(=O)[C@H](CC2CCCCC2)NC(=O)[C@H](CCN)NC(=O)[C@@H](CC(C)C)NC(=O)[C@H](CCCN)NC1=O (stereo partly drawn) [Compound 3508] ({CH2CO}-RY(Carboxymethyl)D[Phe(3-Me)]Y[Bip]K(Ac)[Orn][dL][Dab][Cha]V[Thr(3ξ)]C[Dab][Aun]-OH; thioether N-14) | 14.4 nM
